Laboratory results from patent US20110110891A1, “Methods of Treating Hepatitis C Virus Infection” (priority 2008, published 2011).

Tests used:
[1] = test system: HCV; experiment: Intracellular HCV RNA in eGFP-Jc1 transfected Huh7.5 cells (qRT-PCR); type: cell-based, Hepatitis C virus; conditions: 10 μM, Day 3
Method: (§1) The eGFP-Jc1 reporter construct is a modified version of the Jc1 (J6/C3 chimera) described by Pietschmann et al. (2006) PNAS 103(19): 7408-7413, in which an eGFP (enhanced green fluorescent protein)-IRES (internal ribosomal entry site) cassette has been inserted between the 5′UTR and the open reading frame of the Jc1 construct.
(§2) Transfected cells were then plated at 2×10^6 cells per T75 flask.
(§3) Day 1: The cells were washed 3 times and treated with 10 μl dimethylsulfoxide (DMSO) (control), 10 μM ERK Inhibitor II (FR180204Calbiochem) or 10 μM U0126 (Promega).
(§4) Day 3: The transfected Huh7.5 cells and the supernatant were harvested. The harvested cells and the supernatant were analyzed by quantitative reverse transcription-polymerase chain reaction (qRT-PCR) for levels of HCV RNA
Total RNA was extracted from transfected cells using RNA STAT-60 REAGENT (Tel Test).
(§5) Viral RNA in culture supernatants was isolated using RNA STAT-50 LS REAGENT (Tel Test). total cellular RNA or 10 μl of RNA of culture supernatant was used for cDNA synthesis using SuperScript III reverse transcriptase (Invitrogen) and random hexamer primers. Viral RNA levels were measured by quantitative real-time PCR using Taqman probes and corresponding primers.

[2] = test system: HCV; experiment: HCV RNA in supernatant of eGFP-Jc1 transfected Huh7.5 cells (qRT-PCR); type: cell-based, Hepatitis C virus; conditions: 10 μM, Day 3
Method: as §1, with “Day 0: Huh7.5 cells were transfected with an eGFP-Jc1 reporter construct RNA via electroporation (10 μg RNA per 4×10^6 cells). The” for “The”
as §2, §3, §4, §5

[3] = biological target: ERK-2 (Homo sapiens, UniProt P28482); conditions: cited from earlier work
[4] = biological target: MEK-1 (Homo sapiens, UniProt Q02750); conditions: in vitro; cited from earlier work
[5] = biological target: c-Src (Homo sapiens, UniProt P12931); conditions: cited from earlier work
[6] = biological target: PI 3-kinase γ (Homo sapiens, UniProt P48736); conditions: cited from earlier work
[7] = test system: cdks; conditions: cited from earlier work
[8] = test system: ERK; conditions: cited from earlier work
[9] = test system: MEK 1/2; conditions: cited from earlier work
[10] = test system: Mek; conditions: cited from earlier work
[11] = test system: HCV; conditions: 10 μM, 1 h pretreatment, anti-CD81 single-round infection
Method: Virus: Transfection of Huh7.5 cells with eGFP-Jc1 reporter construct RNA via electroporation (10 μg RNA per 4×10^6 cells)
Harvest virus in the supernatant (Filter & Concentrate using Amicon MWCO 100): conc 10 ml to 200 μl after 3 days
Day 0: Plate Huh7.5 at 1×10^4 cells per well […] (24 well plate)
Day 1: Pretreat cells with 10 μl DMSO or 10 μM U0126 for 1 h
Infection with 50 μl conc. virus per well for 3 h at 37° C.
Addition of 10 μg/ml anti-CD81 antibody (α-CD81) for single-round infection
Day 4: Harvest infected cells for FACS analysis.

Sequence of MEK-1 (Q02750 whole entry, species assumed): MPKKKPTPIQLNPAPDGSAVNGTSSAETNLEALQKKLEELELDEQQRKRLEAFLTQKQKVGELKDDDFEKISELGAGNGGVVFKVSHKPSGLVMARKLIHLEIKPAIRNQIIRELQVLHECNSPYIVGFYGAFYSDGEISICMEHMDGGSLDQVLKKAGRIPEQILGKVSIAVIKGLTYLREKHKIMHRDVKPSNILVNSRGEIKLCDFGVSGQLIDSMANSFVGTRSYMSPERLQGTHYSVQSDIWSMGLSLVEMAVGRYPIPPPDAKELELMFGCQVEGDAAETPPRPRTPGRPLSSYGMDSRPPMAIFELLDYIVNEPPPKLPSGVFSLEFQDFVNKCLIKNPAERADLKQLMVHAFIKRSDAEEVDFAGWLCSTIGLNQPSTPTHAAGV
Sequence of c-Src (P12931 whole entry, species assumed): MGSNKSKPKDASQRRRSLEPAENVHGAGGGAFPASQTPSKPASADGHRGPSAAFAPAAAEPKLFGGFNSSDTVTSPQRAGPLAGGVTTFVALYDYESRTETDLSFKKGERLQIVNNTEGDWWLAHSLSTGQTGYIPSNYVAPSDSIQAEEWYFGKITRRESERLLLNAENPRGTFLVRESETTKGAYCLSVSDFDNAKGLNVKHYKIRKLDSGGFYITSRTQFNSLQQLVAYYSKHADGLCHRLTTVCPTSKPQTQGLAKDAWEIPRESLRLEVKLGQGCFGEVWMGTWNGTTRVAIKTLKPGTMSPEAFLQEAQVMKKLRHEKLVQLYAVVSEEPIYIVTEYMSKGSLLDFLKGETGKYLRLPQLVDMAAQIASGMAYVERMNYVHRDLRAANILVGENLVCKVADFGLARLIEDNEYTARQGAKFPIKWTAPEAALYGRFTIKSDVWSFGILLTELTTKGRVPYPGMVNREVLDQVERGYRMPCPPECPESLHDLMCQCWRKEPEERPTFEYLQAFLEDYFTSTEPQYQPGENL
Sequence of PI 3-kinase γ (P48736 whole entry): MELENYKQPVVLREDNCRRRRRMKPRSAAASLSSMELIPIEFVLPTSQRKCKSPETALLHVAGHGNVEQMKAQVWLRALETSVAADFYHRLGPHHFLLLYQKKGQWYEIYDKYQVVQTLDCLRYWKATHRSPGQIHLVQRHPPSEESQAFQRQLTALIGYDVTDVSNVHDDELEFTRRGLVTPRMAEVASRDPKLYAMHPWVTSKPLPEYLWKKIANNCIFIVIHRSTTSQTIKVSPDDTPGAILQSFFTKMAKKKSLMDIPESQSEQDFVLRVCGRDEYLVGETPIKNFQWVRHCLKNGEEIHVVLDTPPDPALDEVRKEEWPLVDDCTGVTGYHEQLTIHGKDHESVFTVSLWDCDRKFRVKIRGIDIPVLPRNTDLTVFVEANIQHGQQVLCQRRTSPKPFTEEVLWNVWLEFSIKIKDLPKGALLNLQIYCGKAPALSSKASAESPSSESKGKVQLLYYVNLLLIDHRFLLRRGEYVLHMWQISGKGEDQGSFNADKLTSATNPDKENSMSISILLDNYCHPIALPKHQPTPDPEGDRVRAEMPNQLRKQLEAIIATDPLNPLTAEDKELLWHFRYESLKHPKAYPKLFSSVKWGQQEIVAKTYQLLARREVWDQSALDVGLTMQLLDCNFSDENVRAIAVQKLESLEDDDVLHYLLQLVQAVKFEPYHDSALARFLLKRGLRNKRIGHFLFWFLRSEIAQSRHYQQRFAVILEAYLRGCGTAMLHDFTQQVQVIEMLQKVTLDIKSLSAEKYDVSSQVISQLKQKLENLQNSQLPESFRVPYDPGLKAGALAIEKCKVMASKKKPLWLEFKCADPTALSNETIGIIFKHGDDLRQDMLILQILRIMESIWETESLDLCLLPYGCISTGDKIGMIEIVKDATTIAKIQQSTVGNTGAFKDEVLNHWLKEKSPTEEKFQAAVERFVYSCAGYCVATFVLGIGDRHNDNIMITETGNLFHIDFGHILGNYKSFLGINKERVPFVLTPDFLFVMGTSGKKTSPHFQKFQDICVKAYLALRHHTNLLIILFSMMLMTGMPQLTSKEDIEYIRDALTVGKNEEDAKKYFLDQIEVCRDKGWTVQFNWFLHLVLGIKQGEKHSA
Sequence of ERK-2 (P28482 whole entry, species assumed): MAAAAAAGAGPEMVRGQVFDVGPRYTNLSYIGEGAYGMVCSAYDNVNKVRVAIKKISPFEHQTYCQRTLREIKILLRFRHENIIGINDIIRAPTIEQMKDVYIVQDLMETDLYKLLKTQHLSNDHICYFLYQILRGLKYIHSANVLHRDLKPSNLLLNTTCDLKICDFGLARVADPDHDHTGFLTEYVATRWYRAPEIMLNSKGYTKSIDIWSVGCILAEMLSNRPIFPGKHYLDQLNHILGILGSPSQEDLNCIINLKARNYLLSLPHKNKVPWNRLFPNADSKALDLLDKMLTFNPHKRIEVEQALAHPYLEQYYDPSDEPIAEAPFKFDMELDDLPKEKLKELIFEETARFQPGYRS

Which results are given for Nc1n[nH]c2nnc(-c3c(-c4ccccc4)nn4ccccc34)cc12 [FR180204, 5-(2-phenylpyrazolo[1,5-a]pyridin-3-yl)-1H-pyrazolo[3,4-c]pyridazin-3-amine]?
level of intracellular HCV RNA per μg total RNA [1]: increased; decrease in number of HCV copies per ml supernatant compared with control treated cells [2]: ~50%

For Cc1cc(O)c2c(=O)c3c(O)cc(O)c4c5c(O)cc(O)c6c(=O)c7c(O)cc(C)c8c1c2c(c34)c(c78)c65 [Hypericin], which IC50 [3] is on record?
Its IC50 is 0.004 µM.

For COc1cc(O)c2c(c1)/C=C/C[C@]1(O)C(C=CC(=O)[C@H]1O)[C@H](C)OC2=O (stereo partly drawn) [L-783,277], which IC50 [4] is on record?
The IC50 was 0.004 µM.

With Cc1cc(I)ccc1Nc1c(C(=O)NOCC2CC2)cc(F)c(F)c1F [PD198306, N-(Cyclopropylmethoxy)-3,4,5-trifluoro-2-[(4-iodo-2-methylphenyl)amino]-benzamide] as the compound, how does the IC50 [5] read?
The IC50 was greater than 4 µM.

And the IC50 [6]?
The IC50 was greater than 10 µM.

What about the IC50 [7] of the same compound?
The IC50 was greater than 4 µM.

And the IC50 [8]?
The IC50 was greater than 1 µM.

What about the “concentration inhibiting isolated enzyme” value [9] of the same compound?
Its value is 8 nM.

And the “concentrations inhibiting Mek activity in synovial fibroblasts” value [10]?
Its value is 30 to 100 nM.

With COc1cc(O)c2c(c1)/C=C/C[C@@]1(O)C(C=CC(=O)[C@H]1O)[C@H](C)OC2=O (some centres unmarked) [Ro 09-2210] as the compound, how does the IC50 [4] read?
The IC50 was 0.06 µM.

What does the source list for N#CC(=C(/N)Sc1ccccc1N)/C(C#N)=C(\N)Sc1ccccc1N [U0126, 1,4-Diamino-2,3-dicyano-1,4-bis(2-aminophenylthio)butadiene]?
level of intracellular HCV RNA per μg total RNA [1]: increased; HCV copies per ml supernatant relative to supernatant of control treated cells [2]: one third; viral entry detected by GFP expression [11]: HCV entered the cells
